Measurements published in ChEMBL document CHEMBL1150010, “Inhibition of cartilage degradation by isothiazoloquinolinones” (Bioorg Med Chem Lett, 1994).

Organism: Bos taurus
Assay: In vitro inhibition of IL1-beta (interleukin-1-beta) induced degradation of bovine nasal cartilage in an organ culture assay at 30 uM
Assay type: functional

Row | SMILES | inhibition at 30 µM
1 | COc1cc2c(=O)cc3c4ccccc4sn3c2c(OC)c1OC | 80%
2 | O=c1cc2c3ccccc3sn2c2ccc(Cl)cc12 | 84%
3 | COc1cccc2c1sn1c3ccccc3c(=O)cc21 | 30%
4 | COc1cccc2c(=O)cc3c4ccccc4sn3c12 | 74%

Organism: Bos taurus
Assay: In vitro inhibition of IL1-beta (interleukin-1-beta) induced degradation of bovine nasal cartilage in an organ culture assay
Assay type: functional

Row | IC50 | SMILES
5 | 8 µM | O=c1cc2c3ccccc3sn2c2ccccc12
6 | 22 µM | O=c1cc2c3cccnc3sn2c2ccccc12
